In PubChem BioAssay (NCI):
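Step 1: Grow cells in 96-well plates. Step 2: Expose to compound for 48 hours at 5 concentrations. Step 3: Interpolate endpoints linearly; if unreached, use highest concentration. TGI marks complete inhibition of growth.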

Tests used:
Assay in all cases: growth of human tumour cells (NCI), 48 h
786-0 renal = system: 786-0 renal
A498 renal = system: A498 renal
A549 NSCLC = system: A549 NSCLC
ACHN renal = system: ACHN renal
BT-549 breast = system: BT-549 breast
CAKI-1 renal = system: CAKI-1 renal
CCRF-CEM leukemia = system: CCRF-CEM leukemia
COLO 205 colon = system: COLO 205 colon
DU-145 prostate = system: DU-145 prostate
EKVX NSCLC = system: EKVX NSCLC
HCC-2998 colon = system: HCC-2998 colon
HCT-116 colon = system: HCT-116 colon
HCT-15 colon = system: HCT-15 colon
HL-60(TB) leukemia = system: HL-60(TB) leukemia
HOP-92 NSCLC = system: HOP-92 NSCLC
HS 578T breast = system: HS 578T breast
HT29 colon = system: HT29 colon
IGROV1 ovarian = system: IGROV1 ovarian
K-562 leukemia = system: K-562 leukemia
KM12 colon = system: KM12 colon
LOX IMVI melanoma = system: LOX IMVI melanoma
M14 melanoma = system: M14 melanoma
MALME-3M melanoma = system: MALME-3M melanoma
MCF7 breast = system: MCF7 breast
MDA-MB-231 breast = system: MDA-MB-231 breast
MDA-MB-435 = system: MDA-MB-435
MDA-N = system: MDA-N
MOLT-4 leukemia = system: MOLT-4 leukemia
NCI-H226 lung = system: NCI-H226 lung
NCI-H23 lung = system: NCI-H23 lung
NCI-H460 lung = system: NCI-H460 lung
NCI-H522 lung = system: NCI-H522 lung
NCI/ADR-RES ovarian = system: NCI/ADR-RES ovarian
OVCAR-3 ovarian = system: OVCAR-3 ovarian
OVCAR-4 ovarian = system: OVCAR-4 ovarian
OVCAR-5 ovarian = system: OVCAR-5 ovarian
OVCAR-8 ovarian = system: OVCAR-8 ovarian
PC-3 prostate = system: PC-3 prostate
RXF 393 renal = system: RXF 393 renal
SF-268 CNS = system: SF-268 CNS
SF-295 CNS = system: SF-295 CNS
SF-539 CNS = system: SF-539 CNS
SK-MEL-2 melanoma = system: SK-MEL-2 melanoma
SK-MEL-28 melanoma = system: SK-MEL-28 melanoma
SK-MEL-5 melanoma = system: SK-MEL-5 melanoma
SK-OV-3 ovarian = system: SK-OV-3 ovarian
SN12C renal = system: SN12C renal
SNB-19 CNS = system: SNB-19 CNS
SW-620 colon = system: SW-620 colon
T-47D breast = system: T-47D breast
TK-10 renal = system: TK-10 renal
U251 CNS = system: U251 CNS
UACC-257 melanoma = system: UACC-257 melanoma
UACC-62 melanoma = system: UACC-62 melanoma
UO-31 renal = system: UO-31 renal
HOP-62 NSCLC = system: HOP-62 NSCLC
RPMI-8226 leukemia = system: RPMI-8226 leukemia
SNB-75 CNS = system: SNB-75 CNS
SR leukemia = system: SR leukemia

Measured: TGI

N#CC(Nc1ccccc1)c1ccc(C(C#N)Nc2ccccc2)cc1 (stereo not drawn)
69 µM: SF-539 CNS
48 µM: CCRF-CEM leukemia
80.9 µM: HT29 colon
34.3 µM: HL-60(TB) leukemia
not listed: HOP-62 NSCLC | RPMI-8226 leukemia | SNB-75 CNS | SR leukemia
> 100 µM: all other assays above

O=C1c2ccccc2-c2ccc(N=Nc3c(O)ccc4ccccc34)cc21
35 µM: CCRF-CEM leukemia
not listed: ACHN renal | HCC-2998 colon | HL-60(TB) leukemia | MCF7 breast | NCI-H460 lung | SF-539 CNS | SR leukemia
> 100 µM: all other assays above

Cc1cccc(Cl)c1NC(=O)/C=C/c1ccccc1
87.1 µM: SNB-75 CNS
70.1 µM: OVCAR-4 ovarian
not listed: NCI/ADR-RES ovarian | RXF 393 renal | UO-31 renal
> 100 µM: all other assays above

CC(=O)N(CCc1ccccc1)C(C#N)c1ccc(OCCCCCCCCCCOc2ccc(C(C#N)N(CCc3ccccc3)C(C)=O)cc2)cc1 (stereo not drawn)
88.1 µM: SNB-19 CNS
38.3 µM: SNB-75 CNS
44.2 µM: OVCAR-4 ovarian
59.7 µM: SF-268 CNS
43.5 µM: HOP-92 NSCLC
51.6 µM: SF-295 CNS
48.5 µM: MDA-MB-231 breast
92.6 µM: A498 renal
63.2 µM: RXF 393 renal
98.6 µM: BT-549 breast
50 µM: 786-0 renal
56.1 µM: HS 578T breast
66.9 µM: NCI-H226 lung
64.1 µM: U251 CNS
not listed: NCI-H522 lung | HOP-62 NSCLC | RPMI-8226 leukemia | SR leukemia
> 100 µM: all other assays above
